# From article PMC10376326, “Novel Acylselenourea Derivatives: Dual Molecules with Anticancer and Radical Scavenging Activity” (Antioxidants, 2023)
# Assays:
# [1] = system: DU-145 (prostate) cancer cell line; experiment: MTT cell viability assay, DU-145; assay type: cell-based, human; details: Homo sapiens, DU-145, 48 h; for activity at 10 µM: read-out: Cell growth %, DU-145, 10 µM, 48 h, MTT; for activity at 50 µM: read-out: Cell growth %, DU-145, 50 µM, 48 h, MTT
# How it was run: (§1)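 MDA-MB-231, HTB-54 and DU-145 grown in RPMI 1640, HT-29 in McCoy's 5A (10% FBS). Output is % cell growth; IC50 determined; ≥3 experiments in quadruplicate.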
# [2] = system: HT-29 (colon) cancer cell line; experiment: MTT cell viability assay, HT-29; assay type: cell-based; details: Homo sapiens, HT-29, 48 h, read-out: Cell growth %; for activity at 10 µM: HT-29, 10 µM; for activity at 50 µM: HT-29, 50 µM
# How it was run: as §1
# [3] = system: MDA-MB-231 (breast) cancer cell line; experiment: MTT cell viability assay, MDA-MB-231; assay type: cell-based, human; details: Homo sapiens, MDA-MB-231, 48 h; for activity at 10 µM: read-out: Cell growth %, MDA-MB-231, 10 µM, 48 h, MTT; for activity at 50 µM: read-out: Cell growth %, MDA-MB-231, 50 µM, 48 h, MTT
# How it was run: as §1
# [4] = DPPH radical scavenging assay; assay type: biochemical
# How it was run: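 Acylselenoureas at 0.003 and 0.03 mg/mL (final dilutions from DMSO stock, via methanol) mixed with DPPH• prepared at 0.04 mg/mL in methanol. Absorbance decrease at 517 nm followed 0–120 min; % scavenging calculated relative to negative control, triplicates.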
# [5] = system: HTB-54 (lung) cancer cell line; experiment: MTT cell viability assay, HTB-54; assay type: cell-based, human; details: for activity at 10 µM / activity at 50 µM: Homo sapiens, HTB-54, 48 h; for activity at 10 µM: read-out: Cell growth %, HTB-54, 10 µM, 48 h, MTT; for activity at 50 µM: read-out: Cell growth %, HTB-54, 50 µM, 48 h, MTT
# [6] = system: MDA-MB-231, HT-29, HTB-54 and DU-145 cancer cell lines; experiment: MTT cell viability assay, statements over the panel of cancer cell lines; assay type: cell-based, human; details: 10 µM, over the four cancer cell lines
# Experimental: Cell lines were purchased from the American Type Culture Collection (ATCC). Cell lines MDA-MB-231, HTB-54, DU-145, and BEAS-2B were cultured in RPMI 1640 medium (Gibco, Thermo Fisher Scientific, Gaithersburg, MD, USA) supplemented with 10% fetal bovine serum (FBS; Gibco), 100 units/mL penicillin, and […] streptomycin (Gibco). HT-29 cell line was grown in McCoy’s 5A (Gibco), 10% FBS, 100 units/mL penicillin, and 100 μg/mL streptomycin. Cells were maintained at 37 °C and 5% CO2. The culture medium was changed every three days.
# The cell viability of each compound was measured by MTT colorimetric assay. Each compound was dissolved in DMSO at a concentration of 0.01 M. Each compound was tested at two different concentrations (10 and 50 µM) in MDA-MB-231 (breast), HTB-54 (lung), DU-145 (prostate), and HT-29 (colon) human cancer cell lines. Serial dilutions were prepared with supplemented culture medium. […] IC50 and selectivity indexes (SI) were determined.
# Briefly, 1 × 10^4 tumor cells per well were grown in 96-well plates for 24 h. Then, these cells were incubated for 48 h with either DMSO (control) or a different concentration of each of the tested compounds. The cell viability was determined by adding 20 μL of MTT two hours and a half before the termination point. After this time, the culture medium was removed. The resulting formazan crystals were dissolved in 50 μL of DMSO, and the absorbance was measured at 570 nm. Results are expressed as % cell growth. The data were obtained from at least three independent experiments performed in quadruplicate.
Compound,activity at 10 µM [1] [%],activity at 50 µM [1] [%],activity at 10 µM [2] [%],activity at 50 µM [2] [%],activity at 10 µM [3] [%],activity at 50 µM [3] [%],"inhibition ([4]; 0.003 mg/mL, 0 min) [%]","inhibition ([4]; 0.003 mg/mL, 5 min) [%]","inhibition ([4]; 0.003 mg/mL, 15 min) [%]","inhibition ([4]; 0.003 mg/mL, 30 min) [%]","inhibition ([4]; 0.003 mg/mL, 60 min) [%]","inhibition ([4]; 0.003 mg/mL, 90 min) [%]","inhibition ([4]; 0.003 mg/mL, 120 min) [%]","inhibition ([4]; 0.03 mg/mL, 0 min) [%]","inhibition ([4]; 0.03 mg/mL, 5 min) [%]","inhibition ([4]; 0.03 mg/mL, 15 min) [%]","inhibition ([4]; 0.03 mg/mL, 30 min) [%]","inhibition ([4]; 0.03 mg/mL, 60 min) [%]","inhibition ([4]; 0.03 mg/mL, 90 min) [%]","inhibition ([4]; 0.03 mg/mL, 120 min) [%]",further results
"C=CCNC(=[Se])NC(=O)/C=C/c1cccs1 [Compound 4.II, (E)-N-(allylcarbamoselenoyl)-3-(thiophen-2-yl)acrylamide]",67.2 ± 7.1,13.8 ± 1.2,100 ± 7.1,32.9 ± 5,81.1 ± 6.7,17.6 ± 6.6,0,0,0,0.5 ± 2.5,1.7 ± 2.4,2.5 ± 2.4,3.1 ± 2.3,0.9 ± 2.8,6.1 ± 1.7,9.9 ± 1.5,15.5 ± 1.4,25.6 ± 1.3,35 ± 0.6,44.3 ± 0.6,melting point: 104 to 105 °C; activity at 10 µM [5]: 79.2 ± 9.2%; activity at 50 µM [5]: 44.2 ± 6.2%
"C=CCNC(=[Se])NC(=O)/C=C/c1ccc2c(c1)OCO2 [Compound 9.II, (E)-N-(allylcarbamoselenoyl)-3-(benzo[d][1,3]dioxol-5-yl)acrylamide]",110 ± 9,69.6 ± 6.1,113 ± 7.8,103 ± 7.1,83.8 ± 7.9,71.3 ± 5.3,0.1 ± 2.9,0.3 ± 2.7,0.8 ± 2.5,1.5 ± 2.4,2.3 ± 2.3,3 ± 2.3,3.5 ± 2.3,1.9 ± 1.9,6.1 ± 1.7,10.1 ± 1.2,14.7 ± 1.1,22.3 ± 1.2,29 ± 1.2,35.2 ± 1.3,"melting point: 187 to 188 °C; cell growth % ([5]; HTB-54, 10 µM, 48 h, MTT): 82.8%; activity at 10 µM [5]: 82.8 ± 2.8%; activity at 50 µM [5]: 60 ± 4.5%"
"C=CCNC(=[Se])NC(=O)/C=C/c1ccco1 [Compound 3.II, (E)-N-(allylcarbamoselenoyl)-3-(furan-2-yl)acrylamide]",93.6 ± 14.7,10.4 ± 4.1,63.3 ± 15,33.2 ± 6.1,79.6 ± 7.7,14.1 ± 5.8,0,0,0,0.5 ± 2.9,1.7 ± 2.9,2.5 ± 2.9,3.3 ± 2.9,0.7 ± 2.7,5.2 ± 1.8,9 ± 1.6,14.3 ± 1.1,23.7 ± 0.8,31.7 ± 0.1,39.6 ± 0.1,cell growth % [6]: 54.8–95.0%; melting point: 104 to 105 °C; activity at 10 µM [5]: 73.1 ± 3%; activity at 50 µM [5]: 35.4 ± 8.9%
